Results on 79 compounds are retold here after the RepoRT retention time repository (doi:10.1021/acs.analchem.2c02893).

This series in a line: RP, Thermo Scientific Acclaim RSLC 120 C18, 100 × 2.1 mm, 2.2 µm, 30 °C, 0.2 mL/min, estimated dead time 1.1 min; A: 90% water + 10% methanol + 0.01% formic acid + 5 mM ammonium formate, pH 3.61; B: methanol + 0.01% formic acid + 5 mM ammonium formate, pH 3.61; gradient (min/%B) 0/1 1/1 2/39 13/99.9 15/99.9 15.1/1 20.1/1. To be noted: stereoisomer not certain.

SMILES strings stand for the structures.

In the case of `CCN(CC)C(=O)NC1C=C2c3cccc4[nH]cc(c34)CC2N(C)C1` (centres undefined) [Lisuride], the LC retention time was 5.92 min.

Consider `O=C(O)Cc1cn(-c2ccccc2)nc1-c1ccc(Cl)cc1` [Lonazolac], for which the LC retention time was 10.4 min.

Take `CN1CCN(C=C2N=C3CN=C(c4ccccc4Cl)c4cc([N+](=O)[O-])ccc4N3C2=O)CC1` [Loprazolam]: the LC retention time is 6.95 min. Turning to `CCOC(=O)N1CCC(=C2c3ccc(Cl)cc3CCc3cccnc32)CC1` [Loratadine], the LC retention time is 11.5 min. With `O=C1Nc2ccc(Cl)cc2C(c2ccccc2Cl)=NC1O` (centres undefined) [Lorazepam], the LC retention time is 8.36 min. Regarding `CN1C(=O)C(O)N=C(c2ccccc2Cl)c2cc(Cl)ccc21` (centres undefined) [Lormetazepam], the LC retention time was 8.61 min. In the case of `CCCCc1nc(Cl)c(CO)n1Cc1ccc(-c2ccccc2-c2nn[nH]n2)cc1` [Losartan], the LC retention time was 8.19 min. As to `CCC(C)C(=O)OC1CC(C)C=C2C=CC(C)C(CCC3CC(O)CC(=O)O3)C21` (centres undefined) [Lovastatin], the LC retention time was 12 min. For the compound `O=C(NC(=O)c1c(F)cccc1F)Nc1cc(Cl)c(OC(F)(F)C(F)C(F)(F)F)cc1Cl` (centres undefined) [Lufenuron], the LC retention time was 12.5 min.

As to `CC(C)C(O)(C(=O)OCC1=CC[N+]2([O-])CCC(O)C12)C(C)O` (centres undefined) [Lycopsamine-N-oxide], the LC retention time is 3.94 min. For the compound `CC(C)C(O)(C(=O)OCC1=CCN2CCC(O)C12)C(C)O` (centres undefined) [Lycopsamine], the LC retention time is 3.65 min. `CC(O)(C(N)=O)c1ccccc1` (centres undefined) [M-144]: the LC retention time is 12.9 min. As for `COC(=O)C(NC(=O)c1nn(CC2CCCCC2)c2ccccc12)C(C)C` (centres undefined) [MA-CHMINACA], the LC retention time is 12.4 min. Then `CC(C)(C)C(NC(=O)c1nn(CC2CCCCC2)c2ccccc12)C(N)=O` (centres undefined) [MAB-CHMINACA], with 11.8 min; and `CC(=O)OC1C=CC2C3Cc4ccc(O)c5c4C2(CCN3C)C1O5` (centres undefined) [MAM (6-O-Monoacetylmorphine)], with 3.75 min; and `CCC(Cc1ccc2c(c1)OCO2)NC` (centres undefined) [MBDB], with 4.66 min. Consider `COC(=O)COc1ccc(Cl)cc1C` [MCPA-methylester], for which the LC retention time is 9.85 min. The figure for `Cc1cc(Cl)ccc1OCCCC(=O)O` [MCPB] is 10.1 min. For `NC1CCc2cc3c(cc2C1)OCO3` (centres undefined) [MDAT], the LC retention time is 4.32 min.

Consider `CC(C(=O)c1ccc2c(c1)OCO2)N(C)C` (centres undefined) [MDDMA-bk], for which the LC retention time was 3.78 min. As for `CC(Cc1ccc2c(c1)OCO2)N(C)C` (centres undefined) [MDDMA], the LC retention time is 4.08 min. Regarding `CCNC(C)Cc1ccc2c(c1)OCO2` (centres undefined) [MDEA], the LC retention time was 4.39 min. Then `CNC(C)Cc1ccc2c(c1)OCO2` (centres undefined) [MDMA], with 4.18 min; and `COC(=O)C(NC(=O)c1nn(CC2CCCCC2)c2ccccc12)C(C)(C)C` (centres undefined) [MDMB-CHMINACA (MDMB-CHMICA)], with 12.9 min. For the compound `COC(=O)C(NC(=O)c1nn(Cc2ccc(F)cc2)c2ccccc12)C(C)(C)C` (centres undefined) [MDMB-FUBINACA], the LC retention time was 11.3 min. Consider `CCC(C(=O)c1ccc2c(c1)OCO2)N1CCCC1` (centres undefined) [MDPBP], for which the LC retention time was 4.49 min. In the case of `CC(C(=O)c1ccc2c(c1)OCO2)N1CCCC1` (centres undefined) [MDPPP (3-4-Methylenedioxy-a-pyrrolidinopropiophenone)], the LC retention time is 4.13 min. As to `CCCC(C(=O)c1ccc2c(c1)OCO2)N1CCCC1` (centres undefined) [MDPV], the LC retention time is 5.18 min.

With `CCNC(C)C(=O)c1ccc(C)cc1` (centres undefined) [MEC (4-)], the LC retention time is 4.74 min. The figure for `CCCCCn1cc(C(=O)N2CCN(C)CC2)c2ccccc21` [MEPIRAPIM] is 7.75 min; for `CCCCC(CC)CN1C(=O)C2C3C=CC(C3)C2C1=O` (centres undefined) [MGK-264] it is 11.6 min. Then `COC(=O)C(NC(=O)c1cn(CCCCCF)c2ccccc12)C(C)C` (centres undefined) [MMB-2201], with 10 min; and `CCCCCn1nc(C(=O)Nc2cccc3ccccc23)c2ccccc21` [MN-18], with 13 min; and `COc1cccc2c(C(=O)NC3C4(C)CCC(C4)C3(C)C)cn(CCN3CCOCC3)c12` (centres undefined) [MN-25], with 11.7 min. Turning to `Cc1ccc(C2(c3ccccc3)NC(=O)NC2=O)cc1` (centres undefined) [MPPH (5-(p-Methylphenyl)-5-phenylhydantoin)], the LC retention time was 8.12 min. For the compound `CSc1ccc(CC(C)N)cc1` (centres undefined) [MTA (4-)], the LC retention time was 5.24 min. Regarding `CC(C)(C)NCC(O)c1cc(Cl)c(N)c(C(F)(F)F)c1` (centres undefined) [Mabuterol], the LC retention time is 5.28 min. Consider `CN(C)c1ccc(C(=C2C=CC(=[N+](C)C)C=C2)c2ccccc2)cc1` [Malachite green (MG)], for which the LC retention time is 8.34 min. The figure for `CCOC(=O)CC(SP(=O)(OC)OC)C(=O)OCC` (centres undefined) [Malaoxon] is 7.01 min; for `CCOC(=O)CC(SP(=S)(OC)OC)C(=O)OCC` (centres undefined) [Malathion] it is 9.59 min; for `CNCCCC12CCC(c3ccccc31)c1ccccc12` [Maprotiline] it is 8.08 min.

Turning to `CN1CCN(c2c(F)cc3c(=O)c(C(=O)O)cn4c3c2OCN4C)CC1` [Marbofloxacin], the LC retention time is 4.18 min. For the compound `COc1ccc2[nH]cc(CC(C)N)c2c1` (centres undefined) [MeO-AMT (5-)], the LC retention time was 4.36 min. Consider `C=CCN(CC=C)CCc1c[nH]c2ccc(OC)cc12` [MeO-DALT (5-)], for which the LC retention time was 4.89 min.

Turning to `COc1ccc2[nH]cc(CCN(C(C)C)C(C)C)c2c1` [MeO-DIPT (5-)], the LC retention time is 4.81 min. Then `COc1ccc2[nH]cc(CCN(C)C)c2c1` [MeO-DMT (5-)], with 3.98 min; and `COc1ccc2[nH]c(C)c(CCN(C)C)c2c1` [MeO-TMT (5-)], with 4.19 min. In the case of `COc1ccc2[nH]cc(CC(=O)O)c2c1` [MeOT (5-)], the LC retention time is 4.01 min. On to `Cc1ccc(C(=O)C(C)N2CCCC2)cc1` (centres undefined) [MePPP (4-4-Methyl-pyrrolidinopropiophenone)], for which the LC retention time is 4.76 min. With `COC(=O)Nc1nc2ccc(C(=O)c3ccccc3)cc2[nH]1` [Mebendazole], the LC retention time was 8.25 min.

Regarding `CCN(CCCCOC(=O)c1ccc(OC)c(OC)c1)C(C)Cc1ccc(OC)cc1` (centres undefined) [Mebeverine], the LC retention time is 6.79 min. The figure for `CCOC(=O)N(C)C(=O)CSP(=S)(OCC)OCC` [Mecarbam] is 10.2 min; for `Cc1ccc(Cl)c(Nc2ccccc2C(=O)O)c1Cl` [Meclofenamic acid] it is 11.3 min; for `CC1N=C(c2ccccc2Cl)c2cc([N+](=O)[O-])ccc2NC1=O` (centres undefined) [Meclonazepam] it is 8.28 min. `Cc1cccc(CN2CCN(C(c3ccccc3)c3ccc(Cl)cc3)CC2)c1` (centres undefined) [Meclozine]: the LC retention time was 11.3 min. As to `COC(=O)C(C)Oc1ccc(Cl)cc1C` (centres undefined) [Mecoprop-methylester], the LC retention time is 10.6 min.

For `Cc1cc(Cl)ccc1OC(C)C(=O)O` (centres undefined) [Mecoprop], the LC retention time was 8.27 min. `CN1CCN=C(c2ccccc2)c2cc(Cl)ccc21` [Medazepam]: the LC retention time is 10.2 min.

With `CCOC(=O)Nc1cccc(OC(=O)Nc2ccccc2)c1` [Medipham-Desmethyl (desmedipham)], the LC retention time is 8.57 min. The figure for `CC(=O)C1(O)CCC2C3CC(C)C4=CC(=O)CCC4(C)C3CCC21C` (centres undefined) [Medroxyprogesterone] is 10.7 min; for `CC(=O)OC1(C(C)=O)CCC2C3CC(C)C4=CC(=O)CCC4(C)C3CCC21C` (centres undefined) [Medroxyprogesteroneacetate] it is 11 min. Take `CN(C(=O)COc1nc2ccccc2s1)c1ccccc1` [Mefenacet]: the LC retention time was 9.83 min. For `Cc1cccc(Nc2ccccc2C(=O)O)c1C` [Mefenamic acid], the LC retention time was 11.6 min. On to `CC(Cc1ccccc1)NCCCCl` (centres undefined) [Mefenorex], for which the LC retention time was 5.31 min. For `CCOC(=O)C1=NN(c2ccc(Cl)cc2Cl)C(C)(C(=O)OCC)C1` (centres undefined) [Mefenpyr-diethyl], the LC retention time is 11.1 min. Regarding `CCN(CC)CCNC(=O)COc1ccc(OC)cc1` [Mefexamide], the LC retention time is 4.31 min.

For the compound `OC(c1cc(C(F)(F)F)nc2c(C(F)(F)F)cccc12)C1CCCCN1` (centres undefined) [Mefloquine], the LC retention time is 8.59 min. `CC(=O)Nc1cc(NS(=O)(=O)C(F)(F)F)c(C)cc1C` [Mefluidide]: the LC retention time is 6.85 min. Then `CN(CC1(C)CCCO1)S(=O)(=O)c1ccc(Cl)c(S(N)(=O)=O)c1` (centres undefined) [Mefruside], with 6.56 min; and `CC(=O)OC1(C(C)=O)CCC2C3C=C(C)C4=CC(=O)CCC4(C)C3CCC21C` (centres undefined) [Megestrol-17-acetate], with 10.9 min; and `Nc1nc(N)nc(N)n1` [Melamine], with 1.45 min. `COc1ccc2[nH]cc(CCNC(C)=O)c2c1` [Melatonin]: the LC retention time is 5.36 min.

For the compound `CN(C)CCC=C1c2ccccc2C(C)(C)c2ccccc21` [Melitracen], the LC retention time is 8.79 min.

For the compound `Cc1cnc(NC(=O)C2=C(O)c3ccccc3S(=O)(=O)N2C)s1` [Meloxicam], the LC retention time is 7.09 min. The figure for `CC1CCN(CCCC(=O)c2ccc(F)cc2)CC1` [Melperone] is 5.21 min; for `NC(Cc1ccc(N(CCCl)CCCl)cc1)C(=O)O` (centres undefined) [Melphalan] it is 7.01 min. As for `CC#Cc1cc(C)nc(Nc2ccccc2)n1` [Mepanipyrim], the LC retention time is 10.2 min. The figure for `CNC(C)C(=O)c1ccc(C)cc1` (centres undefined) [Mephedrone] is 4.49 min; for `Cc1cc2c(OCC(O)CNC(C)C)cccc2[nH]1` (centres undefined) [Mepindolol] it is 4.44 min.
